Measured values as given in patent publication US20250074892A1, “CARBONYL BRIDGED HETEROCYCLIC COMPOUND, AND COMPOSITION AND APPLICATION THEREOF” (BEIJING SCITECH-MQ PHARMACEUTICALS LIMITED, priority 2022, published 2025).

Target: T1, RIPK1 (Homo sapiens, UniProt Q13546)
T1 construct: intracellular RIPK1 and its phosphorylation during the process of inducing programmed necrosis of HT29 cells; endogenous in cells; host or cells: HT29 cells
T1 sequence (Q13546 1-671): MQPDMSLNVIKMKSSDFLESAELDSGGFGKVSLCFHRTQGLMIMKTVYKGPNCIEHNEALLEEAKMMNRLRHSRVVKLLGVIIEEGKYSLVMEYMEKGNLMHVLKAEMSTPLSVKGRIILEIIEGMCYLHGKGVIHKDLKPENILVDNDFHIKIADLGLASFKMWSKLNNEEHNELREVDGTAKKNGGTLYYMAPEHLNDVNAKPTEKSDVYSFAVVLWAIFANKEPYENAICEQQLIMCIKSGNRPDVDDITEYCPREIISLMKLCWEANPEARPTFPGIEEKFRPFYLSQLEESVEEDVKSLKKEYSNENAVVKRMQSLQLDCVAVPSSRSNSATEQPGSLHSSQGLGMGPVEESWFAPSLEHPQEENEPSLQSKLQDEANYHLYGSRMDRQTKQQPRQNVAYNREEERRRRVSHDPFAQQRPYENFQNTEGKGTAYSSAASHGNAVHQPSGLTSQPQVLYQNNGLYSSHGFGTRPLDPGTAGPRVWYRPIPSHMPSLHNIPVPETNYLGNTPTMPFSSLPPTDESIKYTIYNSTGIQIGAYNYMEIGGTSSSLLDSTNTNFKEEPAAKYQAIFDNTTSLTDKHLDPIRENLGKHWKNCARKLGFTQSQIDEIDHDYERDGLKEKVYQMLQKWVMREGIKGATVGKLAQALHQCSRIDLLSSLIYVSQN
Test: Western Blot detection of inhibition of RIPK1 phosphorylation in HT29 cells
Assay type: cell-based
Conditions: Z-VAD-FMK/TNF-α/AT-406 induction, 7 hours
Protocol: In this assay, Western blot was used to detect the effect of the test compound on intracellular RIPK1 and its phosphorylation during the process of inducing programmed necrosis of HT29 cells to verify the inhibitory effect of the compound on RIPK1 phosphorylation.
a) HT29 cells in good condition were collected, resuspended in McCoy's 5A complete medium and counted. The cells were seeded in a 12-well plate at a cell density of 1×10 6/1 mL/well, and placed in a 37° C. cell culture incubator overnight.
b) Z-VAD-FMK (at final concentration of 20 μM) was added to the above 12-well plate. After 30 minutes, the inducer (where the final concentration of TNF-α was 20 ng/mL, and the final concentration of AT-406 was 100 nM), and the test compound of different concentrations was then added, and incubated in a cell incubator at 37° C. for 7 hours.
c) Preparation of complete lysate: A tube of aliquoted RIPA lysate was thawed, and then phosphatase inhibitor and Roche protease inhibitor were added respectively (phosphatase inhibitor: RIPA=1:100; Roche protease inhibitor: RIPA=4:100); the mixture was placed on ice for later use; […]
g) The BCA kit was used for detection and the protein concentration was calculated; […]
7. […] The membrane was cut according to the molecular weight of the protein to be detected based on the marker band indication. […]

effect on RIPK1 total protein: no obvious inhibitory effect on RIPK1
Structure (SMILES): O=C(C1CCN(c2cc(-c3cc(OCCCO)ccc3F)ccn2)CC1)N1N=CC[C@H]1c1cc(F)cc(F)c1 (racemic) [Example 40]
inhibition of RIPK1 phosphorylation (Western Blot, ratio to total RIPK1): directly inhibits the phosphorylation activity of RIPK1 and shows a dose-dependent relationship
